Where a name gives a salt, the structure may show the parent alone.
Biological target: CaMKIIδ (Homo sapiens (Human), UniProt Q13557)
Experiment: radioactive test on the recombinant CaMKIIδ enzyme (ATP-γ33P incorporation into Autocamtide-2)
Type: biochemical
Conditions: recombinant CaMKIIδ 0.37 nM, 10 μM ATP, 100 μM Autocamtide-2, two hours at 37°C
Description: The compounds according to the invention were tested in vitro for their capacity to inhibit the kinase function of calcium/calmodulin-dependent protein kinase II delta (CaMKIIδ). CaMKIIδis an intracellular serine/threonine kinase. It has an enzymatic domain that is capable of using ATP to autophosphorylate. Its kinase function allows it to use ATP to phosphorylate its substrates on the serines and/or threonines. Several enzymatic and cellular tests are used to evaluate the activity of the products with respect to the kinase function of CaMKIIδ. The kinase activity of CaMKIIδis evaluated by means of a radioactive test on the recombinant CaMKIIδenzyme. The amount of ATP-γ33P incorporated into the specific substrate Autocamtide-2 during its phosphorylation by CaMKIIδis measured. The effect of the products is quantified by the concentration of product that inhibits the total activity of CaMKIIδby 50% (50% inhibitory concentration=IC50). For the determination of the IC50 values, the product is diluted in 100% of DMSO to obtain a 10 mM stock solution. The concentration range tested during the radioactive test ranges from 3 to 10 000 nM with a final concentration in the test of 1% DMSO. This concentration range may, for the most powerful compounds, be extended to 0.1 nM. On the day of the operation, 5 μl of the compounds are deposited in each well of a 96-well plate at 10 times the concentration of that to be tested. Each concentration is tested in duplicate on the same plate. The negative controls (0% activity) and positive controls (100% activity) receive 5 μL of 10% DMSO solution. A reaction premix containing the 1×kinase buffer and an ATP-MgCl2 mixture is prepared. Extemporaneously, a mixture containing the substrate Autocamtide-2 (100 μM) with calmodulin and calcium, and the solution of enzyme CaMKIIδ, is added to the premix. 45 μL of this mixture are immediately deposited per well. The final concentrations in the 50 μL final volume are as follows: compound 1X, 0.37 nM of CaMKIIδ(Invitrogen reference PV3373), 10 μM of ATP (1 μCi per well), 100 μM of Autocamtide-2, […] of calmodulin, 15 mM MgCl2, 400 μM CaCl2, 10 mM β-glycerophosphate, and 1% of DMSO. Two negative controls are prepared on each plate, a first without enzyme CaMKIIδ, and a second without substrate Autocamtide-2; these two elements are replaced with water. The plate is then incubated for two hours at 37°C. with gentle shaking. The reaction is stopped by adding 20 μL per well of H3PO4 solution. The 50 μL of each well are transferred onto a Whatman P81 filter. After rinsing twice with H3PO4 (150 μl/well per wash), followed by two rinses with 150 μL of H2O, 50 μL of scintillant are added per well. The amount of phosphorylated substrate is detected by means of a liquid scintillation counter. The inhibitory activity toward CaMKIIδis given by the concentration that inhibits 50% of the activity of CaMKIIδ. The IC50 values are generally between 10 μM and 10^−5 μM. In the table below, the IC50 values measured for several compounds (I) of the invention are presented as examples.
In the case of `CCc1cc(N2CCN(C3CC3)CC2)ccc1Nc1ncc2c(=O)c(C(N)=O)c(N)n(CC)c2n1` [compound 96, 7-Amino-2-[4-(4-cyclopropylpiperazin-1-yl)-2-ethylphenylamino]-8-ethyl-5-oxo-5,8-dihydropyrido[2,3-d]pyrimidine-6-carboxamide], the IC50 is reported as 396 nM. `CCn1c(N)c(C(N)=O)c(=O)c2cnc(Nc3ccc4c(c3)CCNC4)nc21` [compound 75, 7-Amino-8-ethyl-5-oxo-2-(1,2,3,4-tetrahydroisoquinolin-6-ylamino)-5,8-dihydropyrido[2,3-d]pyrimidine-6-carboxamide] showed an IC50 of 37 nM. Compound `CN(C)Cc1ccc(Nc2ncc3c(=O)c(C(N)=O)c(N)n(CC(F)(F)F)c3n2)cc1` [compound 60, 7-Amino-2-(4-dimethylaminomethylphenylamino)-5-oxo-8-(2,2,2-trifluoroethyl)-5,8-dihydropyrido[2,3-d]pyrimidine-6-carboxamide] has an IC50 of 663 nM. With `CCn1c(N)c(C(N)=O)c(=O)c2cnc(Nc3ccc(N4CCC(N5CCCC5)CC4)c(Cl)c3)nc21` [compound 61, 7-Amino-2-[3-chloro-4-(4-pyrrolidin-1-ylpiperid-1-yl)phenylamino]-8-ethyl-5-oxo-5,8-dihydropyrido[2,3-d]pyrimidine-6-carboxamide] the IC50 was 8 nM. Work on `CCn1c(N)c(C(N)=O)c(=O)c2cnc(Nc3cccc(CN(C)C)c3)nc21` [compound 78, 7-Amino-2-(3-dimethylaminomethylphenylamino)-8-ethyl-5-oxo-5,8-dihydropyrido[2,3-d]pyrimidine-6-carboxamide] yielded an IC50 of 268 nM. With `CC(C)Cn1c(N)c(C(N)=O)c(=O)c2cnc(Nc3ccc(CCN4CCOCC4)cc3)nc21` [compound 52, 7-Amino-8-isobutyl-2-[4-(2-morpholin-4-ylethyl)phenylamino]-5-oxo-5,8-dihydropyrido[2,3-d]pyrimidine-6-carboxamide] the IC50 was 139 nM. Compound `CCn1c(N)c(C(N)=O)c(=O)c2cnc(Nc3ccc(C4CCN(C5CC5)CC4)cc3OC)nc21` [compound 29, 7-Amino-2-[4-(1-cyclopropylpiperid-4-yl)-2-methoxyphenylamino]-8-ethyl-5-oxo-5,8-dihydropyrido[2,3-d]pyrimidine-6-carboxamide] has an IC50 of 17 nM.

System: not given
Experiment: not given
Conditions: not given
`CCn1c(N)c(C(N)=O)c(=O)c2cnc(Nc3ccc(C4CCN(CCC(F)(F)F)CC4)cc3OC)nc21` (as salt: HCl) [compound 35, 7-Amino-8-ethyl-2-{2-methoxy-4-[1-(3,3,3-trifluoropropyl)piperid-4-yl]phenylamino}-5-oxo-5,8-dihydropyrido[2,3-d]pyrimidine-6-carboxamide] showed a melting point of 199 °C. For `CCn1c(N)c(C(N)=O)c(=O)c2cnc(Nc3ccc([C@@H]4C[C@H]4N(C)C)cc3)nc21` (racemic) (as salt: HCl) [compound 97, (±)-7-Amino-2-trans-[4-(2-dimethylaminocyclopropyl)phenylamino]-8-ethyl-5-oxo-5,8-dihydropyrido[2,3-d]pyrimidine-6-carboxamide], the melting point was 208 to 210 °C (dec.). With `CCN1CCN(c2ccc(Nc3ncc4c(=O)c(C(N)=O)c(N)n(CC(C)(C)O)c4n3)c(OC)c2)CC1` (as salt: HCl) [compound 129, 7-Amino-2-[4-(4-ethylpiperazin-1-yl)-2-methoxyphenylamino]-8-(2-hydroxy-2-methylpropyl)-5-oxo-5,8-dihydropyrido[2,3-d]pyrimidine-6-carboxamide] the melting point was 222 °C (dec.). Compound `CCn1c(N)c(C(N)=O)c(=O)c2cnc(Nc3ccc(N4CCN(C5CC5)CC4)cc3OC(F)F)nc21` (as salt: HCl) [compound 33, 7-Amino-2-[4-(4-cyclopropylpiperazin-1-yl)-2-difluoromethoxyphenylamino]-8-ethyl-5-oxo-5,8-dihydropyrido[2,3-d]pyrimidine-6-carboxamide] has a melting point of 204 to 206 °C. `NC(=O)c1c(N)n(C2CCCC2)c2nc(Nc3ccc(N4CCOCC4)cc3)ncc2c1=O` [compound 8, 7-Amino-8-cyclopentyl-2-(4-morpholin-4-ylphenylamino)-5-oxo-5,8-dihydropyrido[2,3-d]pyrimidine-6-carboxamide] showed a melting point of 265 °C. Work on `CCn1c(N)c(C(N)=O)c(=O)c2cnc(Nc3ccc(C4CCN(C5CC5)CC4)cc3OC)nc21` (as salt: HCl) [compound 29, 7-Amino-2-[4-(1-cyclopropylpiperid-4-yl)-2-methoxyphenylamino]-8-ethyl-5-oxo-5,8-dihydropyrido[2,3-d]pyrimidine-6-carboxamide] yielded a melting point of 226 to 228 °C. With `COc1cc(C2CCNCC2)ccc1Nc1ncc2c(=O)c(C(N)=O)c(N)n(-c3ccccc3)c2n1` (as salt: HCl) [compound 113, 7-Amino-2-(2-methoxy-4-piperid-4-ylphenylamino)-5-oxo-8-phenyl-5,8-dihydropyrido[2,3-d]pyrimidine-6-carboxamide] the melting point was 228 °C (dec.). For `NCCCn1c(N)c(C(N)=O)c(=O)c2cnc(Nc3ccc(N4CCOCC4)cc3)nc21` (as salt: HCl) [compound 81, 7-Amino-8-(3-aminopropyl)-2-(4-morpholin-4-ylphenylamino)-5-oxo-5,8-dihydropyrido[2,3-d]pyrimidine-6-carboxamide], the melting point was 250 °C. With `COCCN1CCC(c2ccc(Nc3ncc4c(=O)c(C(N)=O)c(N)n(CC(C)(C)O)c4n3)c(OC)c2)CC1` (as salt: HCl) [compound 133, 7-Amino-8-(2-hydroxy-2-methylpropyl)-2-{2-methoxy-4-[1-(2-methoxyethyl)piperid-4-yl]phenylamino}-5-oxo-5,8-dihydropyrido[2,3-d]pyrimidine-6-carboxamide] the melting point was 170 °C (dec.). With `CCn1c(N)c(C(N)=O)c(=O)c2cnc(Nc3cccc(N4CCOCC4)c3)nc21` [compound 17, 7-Amino-8-ethyl-2-(3-morpholin-4-ylphenylamino)-5-oxo-5,8-dihydropyrido[2,3-d]pyrimidine-6-carboxamide] the melting point was 195 °C. For `CCn1c(N)c(C(N)=O)c(=O)c2cnc(Nc3ccc(O)cc3)nc21` [compound 1, 7-Amino-8-ethyl-2-(4-hydroxyphenylamino)-5-oxo-5,8-dihydropyrido[2,3-d]pyrimidine-6-carboxamide], the melting point was > 260 °C. For `COc1cc(C2CCN(CCC(F)(F)F)CC2)ccc1Nc1ncc2c(=O)c(C(N)=O)c(N)n(CC(C)(C)O)c2n1` (as salt: HCl) [compound 130, 7-Amino-8-(2-hydroxy-2-methylpropyl)-2-{2-methoxy-4-[1-(3,3,3-trifluoropropyl)piperid-4-yl]phenylamino}-5-oxo-5,8-dihydropyrido[2,3-d]pyrimidine-6-carboxamide], the melting point was > 260 °C. In the case of `CCN1CCN(c2cc(F)c(Nc3ncc4c(=O)c(C(N)=O)c(N)n(CC)c4n3)c(OC)c2)CC1` (as salt: HCl) [compound 28, 7-Amino-8-ethyl-2-[4-(4-ethylpiperazin-1-yl)-2-fluoro-6-methoxyphenylamino]-5-oxo-5,8-dihydropyrido[2,3-d]pyrimidine-6-carboxamide], the melting point is reported as > 260 °C. Compound `CCn1c(N)c(C(N)=O)c(=O)c2cnc(Nc3ccc(CCN4CCCCC4)cc3)nc21` (as salt: HCl) [compound 65, 7-Amino-8-ethyl-5-oxo-2-[4-(2-piperid-1-ylethyl)phenylamino]-5,8-dihydropyrido[2,3-d]pyrimidine-6-carboxamide] has a melting point of 216 °C. In the case of `COc1cc(C2CCN(C)CC2)ccc1Nc1ncc2c(=O)c(C(N)=O)c(N)n(-c3ccccc3)c2n1` (as salt: HCl) [compound 134, 7-Amino-2-[2-methoxy-4-(1-methylpiperid-4-yl)phenylamino]-5-oxo-8-phenyl-5,8-dihydropyrido[2,3-d]pyrimidine-6-carboxamide], the melting point is reported as 256 °C (dec.). For `CCn1c(N)c(C(N)=O)c(=O)c2cnc(Nc3ccc(CCO)cc3)nc21` [compound 55, 7-Amino-8-ethyl-2-[4-(2-hydroxyethyl)phenylamino]-5-oxo-5,8-dihydropyrido[2,3-d]pyrimidine-6-carboxamide], the melting point was 289 °C.

From US8975250B2, “5 oxo-5,8-dihydropyrido[2,3-d]pyrimidine derivatives as CaMKII kinase inhibitors for treating cardiovascular diseases” (SANOFI, priority 2010, dated 2015)
